Where two headings read alike, the source gives them in different places.
Key:
[1] = test system: Key Broadleaf Weed and Crop Species; experiment: Post-Emergent Test II: postemergent herbicidal activity, visual rating after 14 d (Table 7); assay type: in vivo; details: post-emergence, 336 h; for pest or weed control at 35 g/ha: 35 g ai/ha; for pest or weed control at 70 g/ha: 70 g ai/ha; for pest or weed control at 140 g/ha: 140 g ai/ha
Procedure, shortened: (§1)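 Post-emergence foliar spray, 187 L/ha, first/second true leaf stage plants in potting mix (pH 6.0-6.8). Rates: top rate and 2-fold serial dilutions to 1/16×. Solvent-blank controls. Readout: visual % kill at 14 d.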

[2] = test system: Key Grass and Sedge Weeds as well as Grass Crops; experiment: Post-Emergent Test II: postemergent herbicidal activity, visual rating after 14 d (Table 8); assay type: in vivo; details: post-emergence, 336 h; for pest or weed control at 35 g/ha: 35 g ai/ha; for pest or weed control at 70 g/ha: 70 g ai/ha; for pest or weed control at 140 g/ha: 140 g ai/ha
Procedure, shortened: as §1

[3] = lambsquarters (Chenopodium album), read-out: Visual Growth Reduction (%) 14 Days After Application CHEAL
[4] = oilseed rape, canola (Brassica napus), read-out: Visual Growth Reduction (%) 14 Days After Application BRSNN
[5] = redroot pigweed (Amaranthus retroflexus), read-out: Visual Growth Reduction (%) 14 Days After Application AMARE
[6] = sunflower (Helianthus annuus), read-out: Visual Growth Reduction (%) 14 Days After Application HELAN
[7] = velvetleaf (Abutilon theophrasti), read-out: Visual Growth Reduction (%) 14 Days After Application ABUTH
[8] = wild poinsettia (Euphorbia heterophylla), read-out: Visual Growth Reduction (%) 14 Days After Application EPHHL
[9] = barnyardgrass (Echinochloa crus-galli), read-out: Visual Growth Reduction (%) 14 Days After Application ECHCG
[10] = giant foxtail (Setaria faberi), read-out: Visual Growth Reduction (%) 14 Days After Application SETFA
[11] = maize, corn (Zea mays), read-out: Visual Growth Reduction (%) 14 Days After Application ZEAMX
[12] = rice (Oryza sativa), read-out: Visual Growth Reduction (%) 14 Days After Application ORYSA
[13] = wheat, spring (Triticum aestivum), read-out: Visual Growth Reduction (%) 14 Days After Application TRZAS
[14] = yellow nutsedge (Cyperus esculentus), read-out: Visual Growth Reduction (%) 14 Days After Application CYPES

Row | SMILES | pest or weed control at 35 g/ha [1, 3] [%] | pest or weed control at 70 g/ha [1, 3] [%] | pest or weed control at 140 g/ha [1, 3] [%] | pest or weed control at 35 g/ha [1, 4] [%] | pest or weed control at 70 g/ha [1, 4] [%] | pest or weed control at 140 g/ha [1, 4] [%] | pest or weed control at 35 g/ha [1, 5] [%] | pest or weed control at 70 g/ha [1, 5] [%] | pest or weed control at 140 g/ha [1, 5] [%] | pest or weed control at 35 g/ha [1, 6] [%] | pest or weed control at 70 g/ha [1, 6] [%] | pest or weed control at 140 g/ha [1, 6] [%] | pest or weed control at 35 g/ha [1, 7] [%] | pest or weed control at 70 g/ha [1, 7] [%] | pest or weed control at 140 g/ha [1, 7] [%] | pest or weed control at 35 g/ha [1, 8] [%] | pest or weed control at 70 g/ha [1, 8] [%] | pest or weed control at 140 g/ha [1, 8] [%] | pest or weed control at 35 g/ha [2, 9] [%] | pest or weed control at 70 g/ha [2, 9] [%] | also measured
1 | Nc1cc(-c2ccc3c(c2F)OC(F)(F)O3)nc(C(=O)O)c1Cl [Compound 41] | 85 to 94 | 85 to 94 | 85 to 94 | 60 to 74 | 75 to 84 | 75 to 84 | 95 to 100 | 95 to 100 | 95 to 100 | 0 to 29 | 60 to 74 | 60 to 74 | 60 to 74 | 75 to 84 | 75 to 84 | 95 to 100 | 95 to 100 | 95 to 100 | 75 to 84 | 85 to 94 | pest or weed control at 140 g/ha [2, 9]: 95 to 100%; pest or weed control at 35 g/ha [2, 10]: 75 to 84%; pest or weed control at 70 g/ha [2, 10]: 85 to 94%; pest or weed control at 140 g/ha [2, 10]: 85 to 94%; pest or weed control at 35 g/ha [2, 11]: 60 to 74%; pest or weed control at 70 g/ha [2, 11]: 75 to 84%; pest or weed control at 140 g/ha [2, 11]: 75 to 84%; pest or weed control at 35 g/ha [2, 12]: 0 to 29%; pest or weed control at 70 g/ha [2, 12]: 0 to 29%; pest or weed control at 140 g/ha [2, 12]: 0 to 29%; pest or weed control at 35 g/ha [2, 13]: 30 to 44%; pest or weed control at 70 g/ha [2, 13]: 30 to 44%; pest or weed control at 140 g/ha [2, 13]: 45 to 59%; pest or weed control at 35 g/ha [2, 14]: 0 to 29%; pest or weed control at 70 g/ha [2, 14]: 0 to 29%; pest or weed control at 140 g/ha [2, 14]: 0 to 29%
2 | Nc1cc(-c2cc3c(cc2F)OC(F)(F)O3)nc(C(=O)O)c1Cl [Compound 42] | 85 to 94 | 85 to 94 | 85 to 94 | 95 to 100 | 95 to 100 | 95 to 100 | 95 to 100 | 95 to 100 | 95 to 100 | 45 to 59 | 60 to 74 | 75 to 84 | 85 to 94 | 85 to 94 | 85 to 94 | 95 to 100 | 95 to 100 | 95 to 100 | 95 to 100 | 95 to 100 | pest or weed control at 140 g/ha [2, 9]: 95 to 100%; pest or weed control at 35 g/ha [2, 10]: 60 to 74%; pest or weed control at 70 g/ha [2, 10]: 75 to 84%; pest or weed control at 140 g/ha [2, 10]: 75 to 84%; pest or weed control at 35 g/ha [2, 11]: 60 to 74%; pest or weed control at 70 g/ha [2, 11]: 75 to 84%; pest or weed control at 140 g/ha [2, 11]: 75 to 84%; pest or weed control at 35 g/ha [2, 12]: 30 to 44%; pest or weed control at 70 g/ha [2, 12]: 30 to 44%; pest or weed control at 140 g/ha [2, 12]: 30 to 44%; pest or weed control at 35 g/ha [2, 13]: 60 to 74%; pest or weed control at 70 g/ha [2, 13]: 60 to 74%; pest or weed control at 140 g/ha [2, 13]: 60 to 74%; pest or weed control at 35 g/ha [2, 14]: 95 to 100%; pest or weed control at 70 g/ha [2, 14]: 95 to 100%; pest or weed control at 140 g/ha [2, 14]: 95 to 100%
3 | Nc1cc(-c2cc(F)c3c(c2)OC(F)(F)O3)nc(C(=O)O)c1Cl [Compound 44] | 0 to 29 | 0 to 29 | 0 to 29 | 0 to 29 | 0 to 29 | 0 to 29 | 0 to 29 | 0 to 29 | 0 to 29 | 0 to 29 | 0 to 29 | 0 to 29 | 0 to 29 | 0 to 29 | 0 to 29 | 0 to 29 | 0 to 29 | 0 to 29 | 60 to 74 | 60 to 74 | pest or weed control at 140 g/ha [2, 9]: 75 to 84%; pest or weed control at 35 g/ha [2, 10]: 0 to 29%; pest or weed control at 70 g/ha [2, 10]: 0 to 29%; pest or weed control at 140 g/ha [2, 10]: 0 to 29%; pest or weed control at 35 g/ha [2, 11]: 0 to 29%; pest or weed control at 70 g/ha [2, 11]: 0 to 29%; pest or weed control at 140 g/ha [2, 11]: 0 to 29%; pest or weed control at 35 g/ha [2, 12]: 0 to 29%; pest or weed control at 70 g/ha [2, 12]: 0 to 29%; pest or weed control at 140 g/ha [2, 12]: 0 to 29%; pest or weed control at 35 g/ha [2, 13]: 0 to 29%; pest or weed control at 70 g/ha [2, 13]: 0 to 29%; pest or weed control at 140 g/ha [2, 13]: 0 to 29%; pest or weed control at 35 g/ha [2, 14]: 0 to 29%; pest or weed control at 70 g/ha [2, 14]: 0 to 29%; pest or weed control at 140 g/ha [2, 14]: 0 to 29%

— patent US9149038B2, “4-amino-6-(heterocyclic)picolinates and 6-amino-2-(heterocyclic)pyrimidine-4-carboxylates and their use as herbicides” (Dow AgroSciences LLC, priority 2013, dated 2015)
